Experimental data reported in publication PMC10698726 (Molecular Pharmaceutics, 2023).
Where “and” joins values, the source holds several entries; their conditions need not be identical. Equal values may be shown once. Read-outs that look alike come from different tables or passages of the source.

Key:
OCT3 = biological target: T1, OCT3 (Homo sapiens, UniProt O75751); assay: Inhibition of model substrate uptake in OCT3-overexpressing HEK293 cells; format: cell-based; conditions: for IC50: read-out: IC50; for x-fold Stereoselectivity: ratio of the IC50 values of the two enantiomers of the drug
T1 construct: expressed in transfected cells; host or cells: HEK293
T1 sequence (O75751 1-556): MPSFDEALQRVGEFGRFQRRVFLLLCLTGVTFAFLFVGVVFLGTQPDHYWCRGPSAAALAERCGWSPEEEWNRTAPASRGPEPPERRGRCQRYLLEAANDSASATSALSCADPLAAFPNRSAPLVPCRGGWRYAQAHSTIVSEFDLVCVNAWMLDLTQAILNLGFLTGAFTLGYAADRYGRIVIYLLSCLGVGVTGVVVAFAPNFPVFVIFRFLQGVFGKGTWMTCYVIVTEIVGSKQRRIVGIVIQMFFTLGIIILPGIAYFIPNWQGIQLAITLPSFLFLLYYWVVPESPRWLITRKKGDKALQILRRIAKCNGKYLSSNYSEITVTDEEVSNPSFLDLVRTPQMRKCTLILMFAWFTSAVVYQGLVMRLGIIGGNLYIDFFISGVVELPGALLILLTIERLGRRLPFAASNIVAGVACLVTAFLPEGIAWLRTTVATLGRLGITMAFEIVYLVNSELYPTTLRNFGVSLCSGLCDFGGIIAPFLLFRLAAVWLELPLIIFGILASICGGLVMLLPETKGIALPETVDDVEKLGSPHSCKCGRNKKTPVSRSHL
Procedure: (§1) All experiments were carried out in transporter-overexpressing HEK293 cells. OCT1-, OCT2-, NET-, DAT-, and SERT-overexpressing cells as well as the empty-vector transfected control cell line were generated as described earlier,[26]−[28] whereas the OCT3-overexpressing HEK293 cells were generous gift of from Drs. Koepsell and Gorbulev (University of Würzburg, Germany). All cells were cultivated in Dulbecco’s modified Eagle’s medium (DMEM) supplemented with 10% (v/v) FCS, penicillin (100 U/mL), and streptomycin (100 μg/mL) and kept in culture for no longer than 30 passages.
(§2) As for the transport experiments, 300,000 HEK293 cells were plated in poly-D-lysine-coated 24-well plates 2 days ahead of the experiment. On every plate, two wells of empty vector (EV)-transfected cells were used as a control to account for the passive influx of the model substrate, and two wells of transporter-overexpressing cells were used to determine the noninhibited uptake of the model substrate. Cells were initially washed once with 37 °C HBSS+ and then incubated with 2 μM model substrate (0.2 μM for MPP^+ uptake by MATs) with and without 20 μM inhibitor for 5 min. For concentration-dependent inhibition experiments, the cells were incubated with increasing inhibitor concentrations. The incubation was terminated by aspiration of the buffer before cells were washed twice with ice-cold HBSS+ and lysed in 80% acetonitrile. Cell lysates were transferred into a black 96-well plate for the fluorescence measurement of ASP^+ or used for sample preparation for LC–MS/MS analysis. […] Fluorescence quantification was performed in technical duplicates.
(§3) Transporter-mediated net uptake was calculated as the difference between uptake in transporter-overexpressing cells and that in the empty-vector-transfected control. […] Vmax is the maximum transport velocity, while Km is defined as the substance concentration that is required to reach half of vmax. The ratio of vmax over Km is termed intrinsic clearance Clint. For inhibition experiments, the transport activity was calculated by using the following equation [drawing 1]
(§4) SubstrateEV refers to the passive uptake of model substrates into the control cells and substratenoninhibited is the uptake in transporter-overexpressing cells without the presence of any inhibitor. The percent inhibition values are then calculated as described in the following [drawing 2]
(§5) For concentration inhibition experiments, the transporter activity was plotted against the log10 of inhibitor concentrations, and the data were fitted by the following equation to determine IC50 values [drawing 3]
(§6) Y refers to the transporter activity, whereas Ymax is the maximum and Ymin is the minimal transporter activity. X is the log10 of inhibitor concentrations, IC50 is the half-maximal inhibitory concentration, and hill slope is the slope factor.

OCT1 = biological target: T2, OCT1 (Homo sapiens, UniProt O15245); assay: Inhibition of model substrate uptake in OCT1-overexpressing HEK293 cells; format: cell-based; set-up: expressed in transfected cells; host or cells: HEK293
T2 sequence (O15245 1-554): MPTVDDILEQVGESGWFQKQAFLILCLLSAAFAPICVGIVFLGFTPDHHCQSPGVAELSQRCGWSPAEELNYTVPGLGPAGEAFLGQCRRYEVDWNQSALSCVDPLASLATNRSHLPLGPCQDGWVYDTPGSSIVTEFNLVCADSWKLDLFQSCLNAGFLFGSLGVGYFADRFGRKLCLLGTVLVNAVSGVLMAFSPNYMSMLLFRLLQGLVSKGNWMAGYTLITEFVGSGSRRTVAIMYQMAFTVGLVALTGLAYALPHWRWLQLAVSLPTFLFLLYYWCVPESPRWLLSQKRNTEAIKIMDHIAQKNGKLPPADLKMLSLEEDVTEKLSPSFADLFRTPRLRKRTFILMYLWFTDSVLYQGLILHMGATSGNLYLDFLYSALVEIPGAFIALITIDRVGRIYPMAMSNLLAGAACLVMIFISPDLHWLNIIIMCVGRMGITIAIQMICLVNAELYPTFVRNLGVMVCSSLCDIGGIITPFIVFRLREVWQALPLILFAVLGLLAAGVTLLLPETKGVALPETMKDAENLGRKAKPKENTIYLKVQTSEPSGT
Procedure: Koepsell and Gorbulev (University of Würzburg, Germany).
Fluorescence quantification was performed in technical duplicates.

OCT2 = biological target: T3, OCT2 (Homo sapiens, UniProt O15244); assay: Inhibition of model substrate uptake in OCT2-overexpressing HEK293 cells; conditions: for IC50: IC50, OCT2, Table S5, 2 μM ASP+ as model substrate, 5 min; for selectivity ratio at 5 min: OCT2-overexpressing HEK293 cells
T3 sequence (O15244 1-555): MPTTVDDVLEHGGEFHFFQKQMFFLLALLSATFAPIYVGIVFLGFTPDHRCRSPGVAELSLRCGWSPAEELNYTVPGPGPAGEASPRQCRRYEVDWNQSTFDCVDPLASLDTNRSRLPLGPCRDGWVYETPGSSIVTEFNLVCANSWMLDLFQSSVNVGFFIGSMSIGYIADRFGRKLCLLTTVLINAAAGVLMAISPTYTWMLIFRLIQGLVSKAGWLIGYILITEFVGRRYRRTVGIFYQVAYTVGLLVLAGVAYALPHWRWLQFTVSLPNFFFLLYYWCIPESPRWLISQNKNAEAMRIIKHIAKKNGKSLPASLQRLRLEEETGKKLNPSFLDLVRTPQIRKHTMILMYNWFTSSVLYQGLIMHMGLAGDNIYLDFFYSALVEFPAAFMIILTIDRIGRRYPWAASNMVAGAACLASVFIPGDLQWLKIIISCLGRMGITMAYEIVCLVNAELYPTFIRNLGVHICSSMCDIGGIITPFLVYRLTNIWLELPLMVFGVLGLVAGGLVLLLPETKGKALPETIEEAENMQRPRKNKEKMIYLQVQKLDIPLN
Procedure: as §1, §2, §3, §4, §5, §6

[1] = OCT3, 20 μM inhibitor, 2 μM ASP+, 5 min
[2] = HEK293, 5 min, read-out: (S)-Zolmitriptan inhibition [%], OCT3, 20 μM inhibitor, 2 μM (S)-zolmitriptan, 5 min
[3] = HEK293, 5 min, read-out: (S,S)-Ethambutol inhibition [%], OCT3, 20 μM inhibitor, 2 μM (S,S)-ethambutol, 5 min
[4] = HEK293, OCT3, 20 μM inhibitor, 2 μM ASP+, 5 min, read-out: ASP+ inhibition [%]
[5] = HEK293, 5 min, read-out: (S)-Zolmitriptan inhibition [%]
[6] = HEK293, 5 min, read-out: (S,S)-Ethambutol inhibition [%]
[7] = OCT3, Table S5, 2 μM ASP+ or ethambutol as model substrate, 5 min
[8] = OCT3, model substrate 2 μM (S)-zolmitriptan, 5 min
[9] = OCT3, model substrate 2 μM (S,S)-ethambutol, 5 min
[10] = OCT3, model substrate 2 μM N-ethyllidocaine, 5 min
[11] = OCT3, 20 μM inhibitor, 2 μM (S,S)-ethambutol, 5 min
[12] = OCT3, 20 μM inhibitor, 2 μM (S)-zolmitriptan, 5 min
[13] = OCT2, ratio of the IC50 values of the two enantiomers of the drug

Compound: C1CCN2C[C@@H]3C[C@@H](CN4CCCC[C@@H]34)[C@H]2C1 [(-)-Sparteine]
- (S)-Zolmitriptan inhibition [%] (OCT3): 11.0
- (S,S)-Ethambutol inhibition [%] (OCT3): 20.7
- ASP+ inhibition [%] (OCT3; [1]): 0.4%

Compound: CC(C)NC[C@@H](O)COc1ccc(CC(N)=O)cc1 [(R)-Atenolol]
- inhibition at 20 µM (OCT3; [2]): 5.5%
- inhibition at 20 µM (OCT3; [3]): 0.9%
- inhibition at 20 µM (OCT3; [4]): 3.9%

Compound: CCN[C@H](C)Cc1cccc(C(F)(F)F)c1 [(R)-Fenfluramine]
- inhibition at 20 µM (OCT3; [5]): 55.9%
- inhibition at 20 µM (OCT3; [6]): 40.7%
- inhibition at 20 µM (OCT3; [4]): 7.6%
- ASP+ inhibition [%] (OCT1; OCT1, 20 μM inhibitor, 2 μM ASP+, 5 min, mean of three experiments): 38.4%

Compound: CCCNC[C@@H](O)COc1ccccc1C(=O)CCc1ccccc1 [(R)-Propafenone]
- inhibition at 20 µM (OCT3; [2]): 53.6%
- inhibition at 20 µM (OCT3; [4]): 17.3%

Compound: Cc1ccc(O)c([C@H](CCN(C(C)C)C(C)C)c2ccccc2)c1 [(R)-Tolterodine]
- inhibition at 20 µM (OCT3; [5]): 97.6%
- IC50 (OCT3; [7]): 2.3 µM
- ASP+ inhibition [%] (OCT3; [1]): 94%
- IC50 (OCT3; [8]): 0.57 µM
- IC50 (OCT3; [9]): 0.39 µM
- IC50 (OCT3; [10]): 0.23 µM
- IC50 (OCT3): 0.17 µM
- IC50 (OCT2): 0.2 µM

Compound: CNCC[C@@H](Oc1ccccc1C)c1ccccc1 [(R)-Tomoxetine]
- inhibition at 20 µM (OCT3; [2]): 33.2%
- (S,S)-Ethambutol inhibition [%] (OCT3; [11]): 39.0%
- ASP+ inhibition [%] (OCT3; [1]): 1.1%
- IC50 (OCT2): 6.3 µM

Compound: COc1ccc(CCN(C)CCC[C@](C#N)(c2ccc(OC)c(OC)c2)C(C)C)cc1OC [(R)-Verapamil]
- inhibition at 20 µM (OCT3; [5]): 42.1%
- inhibition at 20 µM (OCT3; [6]): 48.9%
- inhibition at 20 µM (OCT3; [4]): 8.2%

Compound: CC(C)NC[C@H](O)COc1ccc(CC(N)=O)cc1 [(S)-Atenolol]
- inhibition at 20 µM (OCT3; [2]): -3.8%
- inhibition at 20 µM (OCT3; [3]): 2.9%
- inhibition at 20 µM (OCT3; [4]): 0.9%

Compound: CCCNC[C@H](O)COc1ccccc1C(=O)CCc1ccccc1 [(S)-Propafenone]
- (S)-Zolmitriptan inhibition [%] (OCT3; [12]): 62.0%
- (S,S)-Ethambutol inhibition [%] (OCT3; [11]): 76.4%
- ASP+ inhibition [%] (OCT3; [1]): 23.8%

Compound: Cc1ccc(O)c([C@@H](CCN(C(C)C)C(C)C)c2ccccc2)c1 [(S)-Tolterodine]
- (S)-Zolmitriptan inhibition [%] (OCT3): 82.9
- (S,S)-Ethambutol inhibition [%] (OCT3): 89.8
- IC50 (OCT3; [7]): 25.3 µM
- ASP+ inhibition [%] (OCT3; [1]): 53.5% and 54%
- IC50 (OCT3; [8]): 7 µM
- IC50 (OCT3; [9]): 6.37 µM
- IC50 (OCT3; [10]): 3.1 µM
- IC50 (OCT3; OCT3, model substrate 2 μM famotidine, 5 min): 2.31 µM
- IC50 (OCT2): 0.13 µM

Compound: CNCC[C@H](Oc1ccccc1C)c1ccccc1 [(S)-Tomoxetine]
- (S)-Zolmitriptan inhibition [%] (OCT3; [12]): 21.1%
- (S,S)-Ethambutol inhibition [%] (OCT3; [11]): -5.7%
- ASP+ inhibition [%] (OCT3; [1]): -8.3%
- IC50 (OCT2): 17.1 µM

Compound: COc1ccc(CCN(C)CCC[C@@](C#N)(c2ccc(OC)c(OC)c2)C(C)C)cc1OC [(S)-Verapamil]
- inhibition at 20 µM (OCT3; [5]): 57.6%
- inhibition at 20 µM (OCT3; [6]): 70.7%
- inhibition at 20 µM (OCT3; [4]): 20.8%

Compound: CCN1CCCC1CNC(=O)c1cc(S(=O)(=O)CC)c(N)cc1OC (stereo not drawn) [Amisulpride]
- difference between enantiomers in the inhibition of OCT2 (in words) (OCT2; ASP+ screening, 20 μM inhibitor): noticeable differences
- x-fold Stereoselectivity (OCT2; [13]): 3.2 fold

Compound: C#CCN(C)C(C)Cc1ccccc1 (stereo not drawn) [Deprenyl]
- x-fold Stereoselectivity (OCT2; human, pH 7.4): 1.4 fold

Compound: CN(C)CCOC(C)(c1ccccc1)c1ccccn1 (stereo not drawn) [Doxylamine]
- selectivity ratio at 5 min (OCT1; human, OCT1-overexpressing HEK293 cells, pH 7.4, OCT1, ratio of the IC50 values of the two enantiomers of the drug, read-out: x-fold Stereoselectivity): 1.4

Compound: OCC(O)CN1CCN(c2ccccc2)CC1 (stereo not drawn) [Dropropizine]
- x-fold Stereoselectivity (OCT2; [13]): 1.4 fold

Compound: O=C1c2cccc3c2[C@H](CCC3)CN1[C@@H]1CN2CCC1CC2 [Palonosetron]
- x-fold Stereoselectivity (OCT3; OCT3): 2.5 fold
- stereoselectivity in the inhibition of OCT2 (in words) (OCT2; ASP+ uptake, reduced inhibitor concentrations (Figure S4)): relevant stereoselectivity
- selectivity ratio at 5 min (OCT2; human, pH 7.4): 3.2

Compound: CC(C)(C)NC[C@H](O)COc1nsnc1N1CCOCC1 [Timolol]
- selectivity ratio at 5 min (OCT2; human, pH 7.4): 2

Compound: CN(C)CCc1c[nH]c2ccc(C[C@H]3COC(=O)N3)cc12 [Zolmitriptan]
- x-fold Stereoselectivity (OCT3; OCT3): 25 fold
- stereoselective inhibition of OCT3 (in words) (OCT3; ethambutol and zolmitriptan as substrates, 20 μM inhibitor): stereoselective inhibition
